Test results reported in patent US10945981B2, “Methods for treating familial adenomatous polyposis” (CANCER PREVENTION PHARMACEUTICALS, INC., priority 2019, dated 2021).

Experiments:
[1] = system: patients with Familial Adenomatous Polyposis (FAP); assay: Randomized, double-blind phase III trial in FAP patients: FAP-related events (efficacy); assay type: in vivo, human; details: for Mean time to first FRE: Kaplan-Meier estimated
From the text: Patients were stratified by anatomic site with highest polyp burden and surgical status: (a) post colectomy with rectal or ileal pouch polyposis (longest projected time to first FRE); (b) with duodenal polyposis (intermediate projected time to first FRE); and (c) pre-colectomy (shortest projected time to first FRE) prior to randomization to minimize treatment imbalance.
A stratified randomization procedure was used with stratification based on FAP-related time-to-first-event prognosis (see FIG. 1). The event prognosis groups were represented by 1) best (i.e., longest projected time to first FAP-related event)—rectal/pouch polyposis (Post-colectomy (≥3 years S/P IRA or IPAA with >10 polyps; any polyps >5 mm excised at baseline)), 2) intermediate—duodenal polyposis (Spigelman Stage 3 or 4 or Spigelman Stage 3 or 4 down-staged to Spigelman 1 or 2 within the past 6 months), and 3) worst—pre-colectomy. If a subject has two or more of these disease sites, the most severe prognosis stratum was assigned for randomization (e.g. worst>intermediate>best). Since an individual may have more than one disease site involved, the trial assessed time to any defined FAP-related event in the subject as a whole. In order to minimize potential treatment arm imbalance a centralized randomization process was used to balance among treatment groups within prognostic strata.
Lower GI Endoscopy: Patients were evaluated via colonoscopy, flexible or rigid procto-sigmoidoscopy during the screening phase. Biopsies, ablations, and snare excisions at baseline were performed per the clinician's standard of care. If considered eligible based on inclusion criteria, a grossly normal mucosa biopsy was obtained for baseline polyamine measurement. Still and video documentation of the colon (vide infra) or the residual rectum or entire pouch was also obtained for archiving. Polyp size was determined by visual comparison with biopsy forceps that can measure 5.0-5.5 mm in the fully open position. All randomized patients with an intact colon or rectum/pouch had baseline and on-study lower GI endoscopy procedures as part of this trial.
Upper GI Endoscopy: The duodenum was evaluated by forward-viewing and/or side-viewing gastroscopes (with still and video documentation with closed and open biopsy forceps near mucosa). All randomized patients with a duodenum had baseline and on-study UGI endoscopy as part of this trial. Subjects stratified to the duodenal group must have duodenal biopsies of all polyps 1 cm or larger to determine HGD and histology required for determining Stage 3 or 4 Spigelman status.
FAP-related primary events by disease site were as follows: • 1. Pre-operative, intact colon: Disease progression indicating need for colectomy with IRA or total procto-colectomy • 2. Retained rectum or pouch events include one or more of the following: • a) Excisional intervention by endoscopic snare or trans-anal excision to remove any polyp ≥10 mm in size (per pathology report) and/or pathologic evidence of high grade dysplasia. • b) Disease progression indicating need for proctectomy or pouch resection • 3. Duodenal disease includes the following: • a) Progression in Spigelman Stage to more advanced stage (Stage 2, 3 or 4) • b) Disease progression indicating need for excisional intervention (sub-mucosal resection, trans-duodenal excision, ampullectomy, duodenectomy, Whipple procedure) • c) Development of cancer
At six month intervals (+/−two weeks), subjects underwent repeat upper and lower endoscopy. […] Video recordings of all procedures and qualitative assessments were compared to the exam 6 months prior.

tumor putrescine levels = details: eflornithine infusion, rat-tumor model; cited from earlier work
[2] = system: patients with Familial Adenomatous Polyposis (FAP); assay: Randomized, double-blind phase III trial in FAP patients: safety (adverse events); details: for Treatment-related serious adverse events: 1 patient each
prostoglandin E2 (PGE2) = details: 300 mg/day, one month; cited from earlier work
[3] = disease site colon, number of subjects
[4] = disease site duodenum, number of subjects
[5] = disease site rectum and pouch, number of subjects
[6] = post-colectomy, rectal/ileal pouch stratum

SMILES: NCCCC(N)(C(=O)O)C(F)F (stereo not shown) [Eflornithine, 2,5-diamino-2-(difluoromethyl)pentanoic acid]
- Kaplan-Meier estimated mean time to first FRE ([1]; ITT population): 21.8 months
- Event-free rate ([1]; ITT population, cumulative): 59.6%
- FREs occurred, percent of patients ([1]; ITT population, cumulative): 40.4%
- Surgical FAP-related events, Colon: Event-free proportion ([1]; disease site colon): 76.9%
- Surgical FAP-related events, Colon: Colectomy [1, 3]: 0
- Surgical FAP-related events, Colon: Disease progression [1, 3]: 3
- Surgical FAP-related events, Duodenum: Event-free proportion ([1]; disease site duodenum): 72.7%
- Surgical FAP-related events, Duodenum: Disease progression [1, 4]: 3
- Surgical FAP-related events, Duodenum: Excisional intervention [1, 4]: 3
- Surgical FAP-related events, Duodenum: Spigelman stage progression [1, 4]: 12
- Surgical FAP-related events, Rectum and Pouch: Event-free proportion ([1]; disease site rectum and pouch): 87.2%
- Surgical FAP-related events, Rectum and Pouch: Disease progression [1, 5]: 5
- Surgical FAP-related events, Rectum and Pouch: Proctectomy/pouch resection [1, 5]: 1
- FRE type: Duodenal excision ([1]; duodenal polyposis stratum): 2
- FRE type: Duodenal excision and Spigelman stage progression ([1]; duodenal polyposis stratum): 1
- FRE type: Pouch resection ([1]; duodenal polyposis stratum): 2
- FRE type: Spigelman stage progression ([1]; duodenal polyposis stratum): 7
- FRE type: ≥10 mm polyp removed in rectum/pouch ([1]; duodenal polyposis stratum): 1
- Patients with FRE, % ([1]; duodenal polyposis stratum): (39.4) %
- Total FRE ([1]; duodenal polyposis stratum): 13
- Mean time to first FRE ([1]; duodenal polyposis stratum): 21.7 months
- Risk reduction versus combination ([1]; duodenal polyposis stratum, combination relative to the arm named): 24%
- Patients with FRE, % ([1]; duodenal polyposis stratum, listed as eflornithine): 39.4%
- Progression of lower gastrointestinal polyposis: surgeries ([1]; human, in vivo): 1
- Patients with duodenal polyposis progression who underwent duodenal excisional procedures ([1]; number of patients): 3
- FRE type: Pouch resection [1, 6]: 2
- FRE type: Proctocolectomy [1, 6]: 1
- FRE type: Spigelman stage progression [1, 6]: 1
- FRE type: ≥10 mm polyp removed in rectum/pouch [1, 6]: 1
- Patients with FRE, % [1, 6]: (41.7) %
- Total FRE [1, 6]: 5
- Mean time to first FRE [1, 6]: 15.7 months
- Risk reduction versus combination ([1]; post-colectomy, rectal/ileal pouch stratum, combination relative to the arm named): None
- Patients with FRE, % ([1]; post-colectomy, rectal/ileal pouch stratum, listed as eflornithine): 41.7%
- FRE type: Colectomy ([1]; pre-colectomy stratum): 2
- FRE type: Colectomy and Spigelman stage progression ([1]; pre-colectomy stratum): 1
- FRE type: Spigelman stage progression ([1]; pre-colectomy stratum): 2
- Patients with FRE, % ([1]; pre-colectomy stratum): (41.7) %
- Total FRE ([1]; pre-colectomy stratum): 5
- Mean time to first FRE ([1]; pre-colectomy stratum): 19.7 months
- Patients with FRE, % ([1]; pre-colectomy stratum, listed as eflornithine): 41.7%
- Risk reduction versus combination ([1]; pre-colectomy stratum, risk reduction for FRE of the combination relative to the arm named): 80%
- Event Rate of FAP-related Surgery Events in Lower GI ([1]; subjects with lower GI anatomy): 8/57 (14%)
- Lower GI surgery events: Need colectomy ([1]; subjects with lower GI anatomy): 3
- Lower GI surgery events: Need pouch resection ([1]; subjects with lower GI anatomy): 4
- Lower GI surgery events: Need proctectomy ([1]; subjects with lower GI anatomy): 1
- Lower GI surgery events: Total Surgical Events ([1]; subjects with lower GI anatomy): 8
- Progression of lower gastrointestinal polyposis: polypectomies ([1]; ≥10 mm in size and/or high grade dysplasia): 2
- Decrease in tumor putrescine levels (tumor putrescine levels): 90%
- Discontinuations due to AEs, number of patients [2]: 5 patients
- Discontinuations due to AEs, percent of patients [2]: 8.8%
- TRAE reported by % of patients [2]: 55.4%
- Treatment-related hearing adverse events: Hearing loss N [2]: 1
- Treatment-related hearing adverse events: Tinnitus N [2]: 1
- Treatment-related serious adverse events [2]: stroke
- Treatment-related serious adverse events ([2]; listed as CPP-1X): Stroke
- Death ([2]; safety population): 0 n (%)
- Number of patients discontinuing due to a TRAE ([2]; safety population): 3 (5.4) n (%)
- Number of patients reporting TEAEs ([2]; safety population): 49 (87.5) n (%)
- Number of patients reporting TEAEs ≥ Grade 3 ([2]; safety population): 17 (30.4) n (%)
- Number of patients reporting TRAE: Abdominal distension ([2]; safety population): 4 (7.1) n (%)
- Number of patients reporting TRAE: Abdominal pain ([2]; safety population): 4 (7.1) n (%)
- Number of patients reporting TRAE: Alopecia ([2]; safety population): 0 n (%)
- Number of patients reporting TRAE: Decreased appetite ([2]; safety population): 3 (5.4) n (%)
- Number of patients reporting TRAE: Depression ([2]; safety population): 1 (1.8) n (%)
- Number of patients reporting TRAE: Diarrhea ([2]; safety population): 5 (8.9) n (%)
- Number of patients reporting TRAE: Dizziness ([2]; safety population): 3 (5.4) n (%)
- Number of patients reporting TRAE: Dyspepsia ([2]; safety population): 3 (5.4) n (%)
- Number of patients reporting TRAE: Fatigue ([2]; safety population): 3 (5.4) n (%)
- Number of patients reporting TRAE: Flatulence ([2]; safety population): 3 (5.4) n (%)
- Number of patients reporting TRAE: Frequent bowel movements ([2]; safety population): 3 (5.4) n (%)
- Number of patients reporting TRAE: Gastritis erosive ([2]; safety population): 0 n (%)
- Number of patients reporting TRAE: Headache ([2]; safety population): 8 (14.3) n (%)
- Number of patients reporting TRAE: Hematochezia ([2]; safety population): 4 (7.1) n (%)
- Number of patients reporting TRAE: Nausea ([2]; safety population): 8 (14.3) n (%)
- Number of patients reporting TRAE: Pruritus ([2]; safety population): 2 (3.6) n (%)
- Number of patients reporting TRAE: Rash ([2]; safety population): 0 n (%)
- Number of patients reporting TRAE: Rectal hemorrhage ([2]; safety population): 3 (5.4) n (%)
- Number of patients reporting TRAE: Thrombocytopenia ([2]; safety population): 1 (1.8) n (%)
- Number of patients reporting TRAE: Tinnitus ([2]; safety population): 1 (1.8) n (%)
- Number of patients reporting TRAE: Upper abdominal pain ([2]; safety population): 2 (3.6) n (%)
- Number of patients reporting TRAE: Vomiting ([2]; safety population): 5 (8.9) n (%)
- Number of patients reporting TRAEs ([2]; safety population): 31 (55.4) n (%)
- Number of patients reporting TRSAEs ([2]; safety population): 1 (1.8) n (%)

SMILES: CC(C)Cc1ccc(C(C)C(=O)O)cc1 (stereo not shown) [ibuprofen]
- PGE2 levels in flat mucosa (prostoglandin E2 (PGE2)): significant decrease
